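Grown in 96-well plates, cells were treated for 48 hours with each compound at five concentrations. Insufficient inhibition: endpoint recorded as highest concentration tested. Here, GI50 denotes the concentration required for 50% inhibition of growth.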 The source made the active and inactive calls. Cut-off read from the data, not from the text of the source: active = GI50 up to about 1.1 µM and inactive = higher.
Tests used:
Assay in all cases: NCI anticancer screen, dose series, 48 h
[1] = test system: 786-0
[2] = test system: COLO 205
[3] = test system: HOP-62
[4] = test system: LOX IMVI
[5] = test system: MDA-N
[6] = test system: MOLT-4
[7] = test system: NCI-H226
[8] = test system: NCI-H460
[9] = test system: NCI-H522
[10] = test system: OVCAR-3
[11] = test system: OVCAR-4
[12] = test system: SF-268
[13] = test system: SK-MEL-5
[14] = test system: SN12C
[15] = test system: SNB-75
[16] = test system: U-251
[17] = test system: UACC-257
[18] = test system: UO-31
[19] = test system: A498

Structure (SMILES) | GI50 [1] | GI50 [2] | GI50 [3] | GI50 [4] | GI50 [5] | GI50 [6] | GI50 [7] | GI50 [8] | GI50 [9] | GI50 [10] | GI50 [11] | GI50 [12] | GI50 [13] | GI50 [14] | GI50 [15] | GI50 [16] | GI50 [17] | GI50 [18] | GI50 [19]
Cc1ccc(-n2cc(-c3ccc(Cl)cc3)c3c(NN)ncnc32)cc1 | 2.55 µM (inactive) | 1.72 µM (inactive) | 2.43 µM (inactive) | 4.68 µM (inactive) | 8.83 µM (inactive) | 2.36 µM (inactive) | 2.38 µM (inactive) | 3.4 µM (inactive) | 3.58 µM (inactive) | 0.357 µM (active) | 1.73 µM (inactive) | 2.64 µM (inactive) | 1.57 µM (inactive) | 2.84 µM (inactive) | 1.39 µM (inactive) | 1.82 µM (inactive) | 3.97 µM (inactive) | 3.82 µM (inactive) | 
Cc1ccc([N+](=O)[O-])c2c(NCCC[N+](C)(C)[O-])c3ccccc3nc12 | 2.02 µM (inactive) | 1.02 µM (active) | 2.56 µM (inactive) | 2.04 µM (inactive) |  | 0.33 µM (active) | 2.24 µM (inactive) | 0.716 µM (active) | 0.204 µM (active) | 2.19 µM (inactive) | 2.02 µM (inactive) | 2.47 µM (inactive) | 0.998 µM (active) | 2.19 µM (inactive) | 0.655 µM (active) | 1.32 µM (inactive) | 2.41 µM (inactive) | 16.1 µM (inactive) | 1.89 µM (inactive)
CN1C(C(=O)Nc2ccccn2)=C(O)c2ccccc2S1(=O)=O [PIROXICAM] | > 100 µM (inactive) | > 100 µM (inactive) | > 100 µM (inactive) | > 100 µM (inactive) | > 100 µM (inactive) | > 100 µM (inactive) | > 100 µM (inactive) |  | > 100 µM (inactive) | > 100 µM (inactive) | > 100 µM (inactive) | > 100 µM (inactive) | > 100 µM (inactive) | > 100 µM (inactive) | > 100 µM (inactive) | > 100 µM (inactive) | > 100 µM (inactive) | > 100 µM (inactive) | 
Cc1ccc(N2C(=O)C3c4[nH]c5ccc(C)cc5c4C4CCC(C(C)(C)C)CC4C3C2=O)cc1 (centres undefined) | 4.9 µM (inactive) | 15.2 µM (inactive) | 10.8 µM (inactive) | 15 µM (inactive) | 21 µM (inactive) | 2.48 µM (inactive) | 21.6 µM (inactive) | 7.36 µM (inactive) | 14.3 µM (inactive) | 12.1 µM (inactive) | 6.27 µM (inactive) | 11.9 µM (inactive) | 32.1 µM (inactive) | 12.6 µM (inactive) |  | 10.9 µM (inactive) | 33.1 µM (inactive) | 37.9 µM (inactive) | 
CN1CCC(O)(C(C)(C)C)CC1 | > 100 µM (inactive) | > 100 µM (inactive) | > 100 µM (inactive) | > 100 µM (inactive) | > 100 µM (inactive) | > 100 µM (inactive) | > 100 µM (inactive) | > 100 µM (inactive) |  | > 100 µM (inactive) | > 100 µM (inactive) | > 100 µM (inactive) | > 100 µM (inactive) | > 100 µM (inactive) | > 100 µM (inactive) | > 100 µM (inactive) | > 100 µM (inactive) | > 100 µM (inactive) | 
CCOC(=O)c1cc(-c2ccc(OC)cc2)c([N+](=O)[O-])n1C | > 10 µM (inactive) |  |  |  | 8.91 µM (inactive) | > 10 µM (inactive) | > 10 µM (inactive) | > 10 µM (inactive) | > 10 µM (inactive) | > 10 µM (inactive) | > 10 µM (inactive) | > 10 µM (inactive) |  | > 10 µM (inactive) | > 10 µM (inactive) | > 10 µM (inactive) | > 10 µM (inactive) | > 10 µM (inactive) | 
FC(F)(F)c1cc(Cl)cnc1N/N=C(/c1ccccc1)c1ccccn1 | 2.84 µM (inactive) | 2.03 µM (inactive) | 3.98 µM (inactive) |  | 17.8 µM (inactive) | 1.31 µM (inactive) | 1.57 µM (inactive) | 3.68 µM (inactive) | 1.57 µM (inactive) | 1.82 µM (inactive) | 6.67 µM (inactive) | 0.78 µM (active) | 3.15 µM (inactive) | 5.36 µM (inactive) | 0.298 µM (active) | 3.62 µM (inactive) | 3.04 µM (inactive) | 2.94 µM (inactive) | 
O=C(O)CCC1NC(/C(=C/c2ccccc2O)NC(=O)c2ccccc2)OC1=O (centres undefined) | 46.7 µM (inactive) | > 100 µM (inactive) | 17.5 µM (inactive) | > 100 µM (inactive) |  | > 100 µM (inactive) | 72.3 µM (inactive) | > 100 µM (inactive) | 64.1 µM (inactive) | > 100 µM (inactive) | > 100 µM (inactive) | 61.5 µM (inactive) | > 100 µM (inactive) | > 100 µM (inactive) | 23.2 µM (inactive) | 37.2 µM (inactive) | 27.5 µM (inactive) | 18 µM (inactive) | > 100 µM (inactive)
O=C(O)[C@H]1CCCN1CP(=O)(O)CN1CCC[C@@H]1C(=O)O | > 100 µM (inactive) | > 100 µM (inactive) | > 100 µM (inactive) | > 100 µM (inactive) | > 100 µM (inactive) | > 100 µM (inactive) |  | > 100 µM (inactive) | > 100 µM (inactive) | > 100 µM (inactive) | > 100 µM (inactive) | > 100 µM (inactive) | > 100 µM (inactive) | > 100 µM (inactive) | > 100 µM (inactive) | > 100 µM (inactive) | > 100 µM (inactive) | > 100 µM (inactive) | 
O=C1c2cccc3cccc(c23)C(=O)N1CCCNOCCONCCCN1C(=O)c2cccc3cccc(c23)C1=O | 33.5 µM (inactive) | 83.8 µM (inactive) | 62.1 µM (inactive) | 43.5 µM (inactive) | > 100 µM (inactive) | 12.1 µM (inactive) | 74.6 µM (inactive) | 59.4 µM (inactive) |  | 94 µM (inactive) | 86.3 µM (inactive) | 79.4 µM (inactive) | 58.5 µM (inactive) |  | 42.6 µM (inactive) | 59.7 µM (inactive) | 67.6 µM (inactive) | 45.5 µM (inactive) | > 100 µM (inactive)
Cc1ccc(-n2cc(/C(N)=N/O)c3ccccc3c2=O)cc1 | > 100 µM (inactive) | > 100 µM (inactive) | > 100 µM (inactive) | > 100 µM (inactive) |  | > 100 µM (inactive) | > 100 µM (inactive) | > 100 µM (inactive) | > 100 µM (inactive) | > 100 µM (inactive) |  | > 100 µM (inactive) | > 100 µM (inactive) | > 100 µM (inactive) |  | > 100 µM (inactive) | > 100 µM (inactive) | > 100 µM (inactive) | 
COc1cc(-c2cc(=O)c3c(OC)c(OC)c(OC)cc3o2)c(OC)c(OC)c1OC | > 75 µM (inactive) | > 75 µM (inactive) | > 75 µM (inactive) | 63.5 µM (inactive) | > 75 µM (inactive) | 40.2 µM (inactive) | > 75 µM (inactive) | > 75 µM (inactive) | > 75 µM (inactive) | 51.2 µM (inactive) | 41.1 µM (inactive) | > 75 µM (inactive) | 53.7 µM (inactive) | > 75 µM (inactive) | > 75 µM (inactive) | > 75 µM (inactive) | > 75 µM (inactive) | 57.3 µM (inactive) | 
Cc1ccc([S+]([O-])/C=C(\NC(=O)OCc2ccccc2)C(F)(F)F)cc1 (centres undefined) | 53.3 µM (inactive) | 58.6 µM (inactive) |  | 32.1 µM (inactive) | 38.6 µM (inactive) | 25.2 µM (inactive) | 34.4 µM (inactive) | 41.4 µM (inactive) | 29.8 µM (inactive) | 43.6 µM (inactive) | 67.5 µM (inactive) |  | 60.4 µM (inactive) | 45.4 µM (inactive) | 18.8 µM (inactive) | 18.6 µM (inactive) | 78 µM (inactive) | 21.9 µM (inactive) | 
N#Cc1nc(-c2ccc(-c3nc(C#N)c(N)o3)cc2)oc1N | > 10 µM (inactive) | > 10 µM (inactive) | > 10 µM (inactive) | > 10 µM (inactive) | > 10 µM (inactive) | > 10 µM (inactive) | > 10 µM (inactive) | > 10 µM (inactive) | > 10 µM (inactive) |  | > 10 µM (inactive) | > 10 µM (inactive) | > 10 µM (inactive) | > 10 µM (inactive) | > 10 µM (inactive) |  | > 10 µM (inactive) | > 10 µM (inactive) | 
CC(C)[Si](OC12CCC(CC1O)CC2CO)(C(C)C)C(C)C (centres undefined) | 10.5 µM (inactive) | 18 µM (inactive) | 16.4 µM (inactive) |  |  | 11.5 µM (inactive) | 17.3 µM (inactive) | 12.6 µM (inactive) |  | 14.5 µM (inactive) | 11.5 µM (inactive) | 14.6 µM (inactive) | 18.3 µM (inactive) | 22 µM (inactive) | 13.9 µM (inactive) | 12.6 µM (inactive) | 13.7 µM (inactive) | 13.9 µM (inactive) | 16.7 µM (inactive)
COc1ccc(NC(=O)CC(=O)NN)cc1 | > 100 µM (inactive) | > 100 µM (inactive) | > 100 µM (inactive) | > 100 µM (inactive) | > 100 µM (inactive) | > 100 µM (inactive) | > 100 µM (inactive) | > 100 µM (inactive) | > 100 µM (inactive) | > 100 µM (inactive) | > 100 µM (inactive) | > 100 µM (inactive) | > 100 µM (inactive) | > 100 µM (inactive) | > 100 µM (inactive) | > 100 µM (inactive) | > 100 µM (inactive) | > 100 µM (inactive) | 

— ChEMBL document CHEMBL1201862, “PubChem BioAssay data set” (2004)
